Measurements from patent US20250361230A1, “LATS Inhibitors and Uses Thereof” (The USA, as Represented by the Secretary, Dept. of Heath …, priority 2022, published 2025).

What was measured:
Format in all cases: biochemical
LATS1 = molecular target: T1, LATS1 (Homo sapiens, UniProt O95835); assay: RBC HotSpot kinase assay (33P-ATP, P81 filter-binding), LATS1; conditions: Table 28, biochemical kinase assay; read-out: LATS1 IC50
T1 sequence (O95835 1-1130): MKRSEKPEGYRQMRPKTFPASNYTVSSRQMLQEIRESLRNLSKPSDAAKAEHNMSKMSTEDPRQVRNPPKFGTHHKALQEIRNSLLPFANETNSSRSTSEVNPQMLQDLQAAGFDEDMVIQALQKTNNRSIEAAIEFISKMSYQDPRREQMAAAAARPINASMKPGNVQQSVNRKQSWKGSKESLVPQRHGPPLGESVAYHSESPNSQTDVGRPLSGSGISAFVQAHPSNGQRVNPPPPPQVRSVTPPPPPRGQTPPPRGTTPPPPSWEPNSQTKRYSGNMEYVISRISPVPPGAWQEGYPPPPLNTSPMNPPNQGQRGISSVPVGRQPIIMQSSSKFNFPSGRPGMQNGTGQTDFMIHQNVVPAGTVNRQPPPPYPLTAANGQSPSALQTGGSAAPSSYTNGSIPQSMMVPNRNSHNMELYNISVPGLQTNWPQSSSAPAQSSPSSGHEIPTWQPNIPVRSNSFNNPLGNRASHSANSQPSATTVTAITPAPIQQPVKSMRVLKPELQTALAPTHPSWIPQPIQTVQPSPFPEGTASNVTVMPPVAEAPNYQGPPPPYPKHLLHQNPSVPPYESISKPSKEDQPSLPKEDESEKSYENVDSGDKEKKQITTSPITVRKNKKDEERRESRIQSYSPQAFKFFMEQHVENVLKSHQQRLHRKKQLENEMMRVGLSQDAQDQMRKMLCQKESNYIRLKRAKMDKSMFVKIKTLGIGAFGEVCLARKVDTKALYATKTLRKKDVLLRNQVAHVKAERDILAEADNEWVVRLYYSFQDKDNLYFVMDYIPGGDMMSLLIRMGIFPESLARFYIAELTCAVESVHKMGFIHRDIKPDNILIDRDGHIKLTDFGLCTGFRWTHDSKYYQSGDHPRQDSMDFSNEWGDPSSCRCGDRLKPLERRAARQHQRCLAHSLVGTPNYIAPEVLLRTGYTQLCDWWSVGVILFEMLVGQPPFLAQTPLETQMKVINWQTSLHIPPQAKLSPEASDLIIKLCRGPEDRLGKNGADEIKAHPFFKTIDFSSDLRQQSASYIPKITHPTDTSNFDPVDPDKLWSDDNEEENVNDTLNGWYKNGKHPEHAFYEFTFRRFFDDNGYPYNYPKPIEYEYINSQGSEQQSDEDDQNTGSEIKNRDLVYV
Outline: (§1)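 Hepes pH 7.5/MgCl2/EGTA/Brij35/BSA/Na3VO4/DTT buffer, cofactors per kinase; cpd acoustically dispensed, 20 min preinc RT; start w/ 33P-ATP, 2 h RT; P81 filter readout; 10-pt singlet IC50.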

LATS2 = molecular target: T2, LATS2 (Homo sapiens, UniProt Q9NRM7); assay: RBC HotSpot kinase assay (33P-ATP, P81 filter-binding), LATS2; conditions: Table 28, biochemical kinase assay; read-out: LATS2 IC50
T2 sequence (Q9NRM7 1-1088): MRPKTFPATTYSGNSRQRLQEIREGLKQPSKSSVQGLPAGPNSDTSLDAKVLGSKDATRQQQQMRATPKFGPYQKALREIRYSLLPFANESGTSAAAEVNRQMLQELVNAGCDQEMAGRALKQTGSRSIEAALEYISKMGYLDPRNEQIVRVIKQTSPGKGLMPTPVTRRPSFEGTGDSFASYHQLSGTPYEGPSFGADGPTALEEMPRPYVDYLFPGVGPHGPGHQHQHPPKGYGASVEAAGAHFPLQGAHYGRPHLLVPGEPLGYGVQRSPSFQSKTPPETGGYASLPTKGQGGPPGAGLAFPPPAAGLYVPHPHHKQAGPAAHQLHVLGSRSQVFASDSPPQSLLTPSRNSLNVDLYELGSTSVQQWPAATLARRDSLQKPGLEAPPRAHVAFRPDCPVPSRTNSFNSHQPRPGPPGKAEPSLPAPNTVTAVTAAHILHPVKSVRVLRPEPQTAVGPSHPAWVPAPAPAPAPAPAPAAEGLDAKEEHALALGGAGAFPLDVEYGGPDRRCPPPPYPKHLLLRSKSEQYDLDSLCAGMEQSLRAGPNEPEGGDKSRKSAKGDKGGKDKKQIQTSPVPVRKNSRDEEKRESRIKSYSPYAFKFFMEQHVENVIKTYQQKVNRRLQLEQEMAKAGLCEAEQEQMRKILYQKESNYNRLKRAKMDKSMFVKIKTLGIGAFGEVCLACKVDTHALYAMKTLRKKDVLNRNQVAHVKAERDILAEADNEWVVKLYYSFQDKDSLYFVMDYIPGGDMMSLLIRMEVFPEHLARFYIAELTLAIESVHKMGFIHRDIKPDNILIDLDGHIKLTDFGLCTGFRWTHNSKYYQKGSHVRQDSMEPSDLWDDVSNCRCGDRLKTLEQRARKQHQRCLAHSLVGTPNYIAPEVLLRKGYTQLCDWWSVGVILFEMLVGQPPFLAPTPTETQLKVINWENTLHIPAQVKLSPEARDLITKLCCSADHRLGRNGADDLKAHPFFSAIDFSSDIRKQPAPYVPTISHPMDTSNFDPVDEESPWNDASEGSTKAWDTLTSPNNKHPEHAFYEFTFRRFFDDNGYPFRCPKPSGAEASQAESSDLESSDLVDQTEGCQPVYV
Outline: as §1

AKT = AKT (Homo sapiens, UniProt P31749); assay: RBC HotSpot kinase assay (33P-ATP, P81 filter-binding), AKT; conditions: Table 28, biochemical kinase assay; read-out: AKT IC50
Outline: as §1

Chain of AKT (P31749 whole entry): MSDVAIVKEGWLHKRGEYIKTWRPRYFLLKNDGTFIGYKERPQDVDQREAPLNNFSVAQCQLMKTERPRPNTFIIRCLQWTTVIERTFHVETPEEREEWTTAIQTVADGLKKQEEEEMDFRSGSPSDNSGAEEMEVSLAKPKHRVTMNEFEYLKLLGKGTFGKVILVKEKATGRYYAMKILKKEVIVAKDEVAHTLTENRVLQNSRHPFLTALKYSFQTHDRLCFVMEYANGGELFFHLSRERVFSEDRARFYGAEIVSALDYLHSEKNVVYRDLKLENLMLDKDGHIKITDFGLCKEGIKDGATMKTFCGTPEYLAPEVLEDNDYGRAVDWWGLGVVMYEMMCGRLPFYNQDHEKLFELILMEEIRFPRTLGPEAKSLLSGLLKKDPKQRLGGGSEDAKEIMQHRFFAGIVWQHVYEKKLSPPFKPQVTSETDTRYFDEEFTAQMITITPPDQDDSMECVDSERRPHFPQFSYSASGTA

CC(C)(N)c1ccc(-c2ccnc3[nH]ccc23)cc1-c1ccccc1 [Compound 206, 2-(5-(1H-pyrrolo[2,3-b]pyridin-4-yl)-[1,1′-biphenyl]-2-yl)propan-2-amine]
IC50 (LATS1): 10.2 nM
IC50 (LATS2): 74.9 nM
IC50 (AKT): 1620 nM

CC(C)(N)c1ccc(-c2ccnc3[nH]cc(Br)c23)cc1-c1ccccc1 [Compound 207, 2-(5-(3-bromo-1H-pyrrolo[2,3-b]pyridin-4-yl)-[1,1′-biphenyl]-2-yl)propan-2-amine]
IC50 (LATS1): 4 nM
IC50 (LATS2): 9.6 nM
IC50 (AKT): 267 nM

CN(C)C(C)(C)c1ccc(-c2ccnc3[nH]cc(F)c23)cc1 [Compound 208, 2-(4-(3-fluoro-1H-pyrrolo[2,3-b]pyridin-4-yl)phenyl)-N,N-dimethylpropan-2-amine]
IC50 (LATS1): 8.3 nM
IC50 (LATS2): 15 nM
IC50 (AKT): 349 nM

CN(C)C(C)(C)c1ccc(-c2ccnc3[nH]ccc23)cc1 [Compound 209, 2-(4-(1H-pyrrolo[2,3-b]pyridin-4-yl)phenyl)-N,N-dimethylpropan-2-amine]
IC50 (LATS1): 43 nM
IC50 (LATS2): 146 nM
IC50 (AKT): 1250 nM

CC(C)(N)c1ccc(-c2ccnc3[nH]cc(Br)c23)cc1 [Compound 210, 2-(4-(3-bromo-1H-pyrrolo[2,3-b]pyridin-4-yl)phenyl)propan-2-amine]
IC50 (LATS1): 24 nM
IC50 (LATS2): 4.7 nM
IC50 (AKT): 331 nM

COC(=O)c1c[nH]c2nccc(-c3ccc(C(C)(C)N)cc3)c12 [Compound 212, methyl 4-(4-(2-aminopropan-2-yl)phenyl)-1H-pyrrolo[2,3-b]pyridine-3-carboxylate]
IC50 (LATS1): 12 nM
IC50 (LATS2): 13 nM
IC50 (AKT): 1250 nM

COC(=O)c1c[nH]c2nccc(-c3ccc(CN)c(C)c3)c12 [Compound 213, methyl 4-(4-(aminomethyl)-3-methylphenyl)-1H-pyrrolo[2,3-b]pyridine-3-carboxylate]
IC50 (LATS1): 7.7 nM
IC50 (LATS2): 14.7 nM
IC50 (AKT): 832 nM

COC(=O)c1c[nH]c2nccc(-c3ccc(CN)c(-c4ccccc4)c3)c12 [Compound 214, methyl 4-(6-(aminomethyl)-[1,1′-biphenyl]-3-yl)-1H-pyrrolo[2,3-b]pyridine-3-carboxylate]
IC50 (LATS1): 11 nM
IC50 (LATS2): 24 nM
IC50 (AKT): 986 nM

Cc1cc(-c2ccnc3[nH]cc(F)c23)ncc1CN [Compound 215, (6-(3-fluoro-1H-pyrrolo[2,3-b]pyridin-4-yl)-4-methylpyridin-3-yl)methanamine]
IC50 (LATS1): 4.7 nM
IC50 (LATS2): 15 nM
IC50 (AKT): 2840 nM

COC(=O)c1c[nH]c2nccc(-c3ccc(CN)c(Cl)c3)c12 [Compound 216, methyl 4-(4-(aminomethyl)-3-chlorophenyl)-1H-pyrrolo[2,3-b]pyridine-3-carboxylate]
IC50 (LATS1): 11 nM
IC50 (LATS2): 19 nM
IC50 (AKT): 823 nM

Cc1cc(-c2ccnc3[nH]ccc23)ncc1CN [Compound 217, (4-methyl-6-(1H-pyrrolo[2,3-b]pyridin-4-yl)pyridin-3-yl)methanamine]
IC50 (LATS1): 8.2 nM
IC50 (LATS2): 12 nM
IC50 (AKT): 3160 nM

NCc1ccc(-c2ccnc3[nH]ccc23)nc1 [Compound 218, (6-(1H-pyrrolo[2,3-b]pyridin-4-yl)pyridin-3-yl)methanamine]
IC50 (LATS1): 37 nM
IC50 (LATS2): 130 nM
IC50 (AKT): 4930 nM

CC(C)c1c[nH]c2nccc(-c3ccc(CN)c(-c4ccccc4)c3)c12 [Compound 220, (5-(3-isopropyl-1H-pyrrolo[2,3-b]pyridin-4-yl)-[1,1′-biphenyl]-2-yl)methanamine]
IC50 (LATS1): 236 nM
IC50 (LATS2): 115 nM
IC50 (AKT): 1010 nM

Cc1cc(-c2ccnc3[nH]cc(F)c23)cc(C)c1CN [Compound 222, (4-(3-fluoro-1H-pyrrolo[2,3-b]pyridin-4-yl)-2,6-dimethylphenyl) methanamine]
IC50 (LATS1): 16 nM
IC50 (LATS2): 31 nM
IC50 (AKT): 470 nM

C=C(C)c1c[nH]c2nccc(-c3ccc(CN)c(-c4ccccc4)c3)c12 [Compound 224, (5-(3-(prop-1-en-2-yl)-1H-pyrrolo[2,3-b]pyridin-4-yl)-[1,1′-biphenyl]-2-yl)methanamine]
IC50 (LATS1): 73 nM
IC50 (LATS2): 35 nM
IC50 (AKT): 1150 nM

NCc1ccc(-c2cc(N)nc3[nH]ccc23)cc1 [Compound 225, 4-(4-(aminomethyl)phenyl)-1H-pyrrolo[2,3-b]pyridin-6-amine]
IC50 (LATS1): ≥ 10000 nM
IC50 (LATS2): 6420 nM
IC50 (AKT): > 10000 nM

CC(C)(N)c1ccc(-c2ccnc3[nH]ccc23)cc1 [Compound 226, 2-(4-(1H-pyrrolo[2,3-b]pyridin-4-yl)phenyl)propan-2-amine]
IC50 (LATS1): 25.4 nM
IC50 (LATS2): 1.2 nM
IC50 (AKT): 734 nM

NCc1ccc(-c2ccnc3[nH]cc(-c4cccc(C(F)(F)F)c4)c23)cc1 [Compound 227, (4-(3-(3-(trifluoromethyl)phenyl)-1H-pyrrolo[2,3-b]pyridin-4-yl)phenyl) methanamine]
IC50 (LATS1): 124 nM
IC50 (LATS2): 49.3 nM
IC50 (AKT): 3670 nM

NCc1ccc(-c2ccnc3[nH]cc(-c4cccc(Cl)c4)c23)cc1 [Compound 228, (4-(3-(3-chlorophenyl)-1H-pyrrolo[2,3-b]pyridin-4-yl)phenyl) methanamine]
IC50 (LATS1): 34 nM
IC50 (LATS2): 14 nM
IC50 (AKT): 1020 nM

Cc1ccccc1-c1c[nH]c2nccc(-c3ccc(CN)cc3)c12 [Compound 229, (4-(3-(o-tolyl)-1H-pyrrolo[2,3-b]pyridin-4-yl)phenyl) methanamine]
IC50 (LATS1): 235 nM
IC50 (LATS2): 235 nM
IC50 (AKT): 6340 nM

COCCNc1cc(-c2ccnc3[nH]ccc23)ccc1CN [Compound 231, 2-(aminomethyl)-N-(2-methoxyethyl)-5-(1H-pyrrolo[2,3-b]pyridin-4-yl)aniline]
IC50 (LATS1): 24 nM
IC50 (LATS2): 144 nM
IC50 (AKT): 437 nM

CC(C)c1cc(-c2ccnc3[nH]cc(Cl)c23)ccc1CN [Compound 232, (4-(3-chloro-1H-pyrrolo[2,3-b]pyridin-4-yl)-2-isopropylphenyl) methanamine]
IC50 (LATS1): 3.3 nM
IC50 (LATS2): 11.6 nM
IC50 (AKT): 60.5 nM

CC(C)c1cc(-c2ccnc3[nH]ccc23)ccc1CN [Compound 233, (2-isopropyl-4-(1H-pyrrolo[2,3-b]pyridin-4-yl)phenyl) methanamine]
IC50 (LATS1): 5.6 nM
IC50 (LATS2): 35.5 nM
IC50 (AKT): 281 nM
